# PMC3585409, “Structural Determinants for Activity and Specificity of the Bacterial Toxin LlpA” (PLoS Pathogens, 2013)
# Where two headings read alike, the source gives them in different places.
# Key:
# LlpABW [1] = target: T1, LlpABW (Pseudomonas putida, UniProt Q8GEJ9); assay: ITC; type: binding
# T1 construct: gene llpA; full-length, N-terminal His6 tag (pET28a, pCMPG6056), E. coli BL21(DE3); no signal peptide; N-domain Arg4-Pro135, C-domain Ala136-Gln253, hairpin Pro254-His275
# LlpABW [2] = target: T2, LlpABW (Pseudomonas putida, UniProt Q8GEJ9, V208Y); assay: ITC; type: binding
# T2 construct: gene llpA; full-length, N-terminal His6 tag (pET28a, pCMPG6056), E. coli BL21(DE3); no signal peptide; N-domain Arg4-Pro135, C-domain Ala136-Gln253, hairpin Pro254-His275
# [3] = bis-TRIS propane 20 mM, 200 mM NaCl, pH 7.0, 25°C, single-site fit n = 1, site III^C
# T1 sequence (Q8GEJ9 1-276): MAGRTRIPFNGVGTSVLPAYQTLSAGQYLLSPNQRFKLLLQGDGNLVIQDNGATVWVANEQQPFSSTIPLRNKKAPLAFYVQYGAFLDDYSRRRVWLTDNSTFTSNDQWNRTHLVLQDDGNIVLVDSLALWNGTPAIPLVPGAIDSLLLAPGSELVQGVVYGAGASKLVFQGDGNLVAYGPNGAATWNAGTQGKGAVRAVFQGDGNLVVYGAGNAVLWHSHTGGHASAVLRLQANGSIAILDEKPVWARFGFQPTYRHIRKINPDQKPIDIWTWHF
# T2 sequence (Q8GEJ9 1-276, stated change not applied): as the sequence (Q8GEJ9 1-276) above
SMILES,Kd (LlpABW [1]; [3]) [mM],further results
CC(=O)N[C@H]1[C@H](O[C@@H]2[C@@H](OC[C@H]3OC(O)[C@@H](O)[C@@H](O[C@H]4O[C@H](CO)[C@@H](O)[C@H](O)[C@@H]4O[C@@H]4O[C@H](CO)[C@@H](O)[C@H](O)[C@H]4NC(C)=O)[C@@H]3O)O[C@H](CO)[C@@H](O)[C@@H]2O)O[C@H](CO)[C@@H](O)[C@@H]1O (some centres unmarked) [GlcNAcβ(1–2)Manα(1–3)[GlcNAcβ(1–2)Manα(1–6)]Man],2.1,–
OC[C@H]1O[C@H](O[C@@H]2C(O)O[C@H](CO)[C@@H](O)[C@@H]2O)[C@@H](O)[C@@H](O)[C@@H]1O (some centres unmarked) [Manα(1–2)Man],42.4,–
OC[C@H]1O[C@H](O[C@H]2[C@H](O)[C@@H](CO)OC(O)[C@H]2O)[C@@H](O)[C@@H](O)[C@@H]1O (some centres unmarked) [Manα(1–3)Man],18.2,Kd (LlpABW [2]; [3]): 23 mM
OC[C@H]1O[C@H](OC[C@H]2OC(O)[C@@H](O)[C@@H](O[C@H]3O[C@H](CO)[C@@H](O)[C@H](O)[C@@H]3O)[C@@H]2O)[C@@H](O)[C@@H](O)[C@@H]1O (some centres unmarked) [Manα(1–3)[Manα(1–6)]Man],10.1,–
OC[C@H]1O[C@H](OC[C@H]2OC(O)[C@@H](O)[C@@H](O)[C@@H]2O)[C@@H](O)[C@@H](O)[C@@H]1O (some centres unmarked) [Manα(1–6)Man],17.2,–
CO[C@H]1O[C@H](CO)[C@@H](O)[C@H](O)[C@@H]1O [methyl-α-D-mannopyranoside],–,Kd (LlpABW [2]; read-out: Kd): 58.8 mM; Kd (LlpABW [1]; read-out: Kd): 45.9 mM
